According to US20260335323A1, “CHIMERIC MOLECULE” (UCL Business Ltd, priority 2023, published 2026):

Tested on: SH-SY5Y cells
Experiment: TMRM assay of mitochondrial membrane potential
Type: cell-based, human
Procedure: FIG. 1. The structure of AUTAC-4 is shown in (A). (B) Representative images of SH-SY5Y cells stably expressing the mito-mKeima reporter treated with AUTAC4 for 18 h. Nuclei were stained with Hoechst 33342, healthy mitochondria are shown in green and mitochondria in lysosomes are shown in red. (C-E) Fold change in mitophagy index over time after treatment with increasing concentrations of AUTAC4 under treatment with DMSO (C), 3 mM CCCP (D) or 0.1/0.1 mM antimycin/oligomycin (E), also for 18 h. (F) Quantification of changes in mitochondrial membrane potential over time (DYm) by measuring the TMRM relative fluorescence intensity (RFI) treated with DMSO, 10 mM CCCP, 10 mM and 20 mM AUTAC4. Normalised to number of nuclei. (G) Representative western blot of SH-SY5Y cells treated with DMSO, 10 mM AUTAC4 or 10 mM AUTAC4+0.1/0.1 mM antimycin/oligomycin for 18 h and, probed for p62, b-actin and Tom20. Quantifications of western blot for changes in Tom20 and p62 levels shown in (H) and (I), respectively. (J) Representative images of PANC-1 cells stably expressing the mCherry-EGFP-LC3 tandem reporter. Nuclei stained with Hoechst 33342, autophagosomes are shown in the EGFP channel and autolysosomes in the mCherry channel. Fold change in the number of autophagosome (K) and autolysosome (L) puncta in AUTAC4 treated cells. […] For mito-mKeima experiments, statistics were calculated by Two-way ANOVA with Tukey's multiple comparisons test. For western blots, TMRM and LC3 tandem reporter assay, statistics were calculated with one-way ANOVA with Tukey's multiple comparisons test.
FIG. 5. […] (B) Quantification of the colocalised ULK1 to TOM20 spot area of PANC-1 cells treated with DMSO, 5 mM CCCP, 10 mM BL-918, 10 mM BL-918+5 mM CCCP, […] NZ-65, […] NZ-65+5 mM CCCP, […] NZ-66, […] NZ-66+5 mM CCCP, 50 mM TSPO ligand, […] NZ-65+50 mM TSPO ligand, […] NZ-66+50 mM TSPO ligand. (C) Western blot of SH-SY5Y cells treated with 1 mM ULKTACs, 5 mM CCCP or both, probed for Mfn2, b-Actin and Tom20—quantifications are shown in (D) for Mfn2, normalised to Actin. […]

SMILES	mitochondrial membrane potential (TMRM)
O=C(Nc1cc(C(F)(F)F)cc(C(F)(F)F)c1)N[C@@H](C(=O)Nc1ccc(F)cc1F)c1ccc(OCc2cn(CCCCCCNC(=O)C(=O)c3c(-c4ccccc4)[nH]c4ccccc34)nn2)cc1 [NZ-66, (R)-2-(3-(3,5-bis(trifluoromethyl)phenyl)ureido)-N-(2,4-difluorophenyl)-2-(4-((1-(6-(2-oxo-2-(2-phenyl-1H-indol-3-yl)acetamido)hexyl)-1H-1,2,3-triazol-4-yl)methoxy)phenyl) acetamide]	neither NZ-65 nor NZ-66 showed any effect
O=C(Nc1ccc(F)cc1F)[C@H](NC(=S)Nc1cc(C(F)(F)F)cc(C(F)(F)F)c1)c1ccccc1 [BL-918, reference compound]	depolarisation of the outer mitochondrial membrane at higher concentrations
O=C(Nc1cc(C(F)(F)F)cc(C(F)(F)F)c1)N[C@@H](C(=O)Nc1ccc(F)cc1F)c1ccc(OCc2cn(CCOCCOCCNC(=O)C(=O)c3c(-c4ccccc4)[nH]c4ccccc34)nn2)cc1 [NZ-65, (R)-2-(3-(3,5-bis(trifluoromethyl)phenyl)ureido)-N-(2,4-difluorophenyl)-2-(4-((1-(2-(2-(2-(2-oxo-2-(2-phenyl-1H-indol-3-yl)acetamido)ethoxy)ethoxy)ethyl)-1H-1,2,3-triazol-4-yl)methoxy)phenyl) acetamide]	neither NZ-65 nor NZ-66 showed any effect
